For this assay, the system named is HIV-1 LAI envelope single-round infectious reporter virus. Briefly: Single-round infectious HIV-1 LAI luciferase reporter virus infection of MT2 cells. It counts as cell-based. The note with it: Human immunodeficiency virus 1, MT2, 72 h. From the text: • Virus production—Human embryonic Kidney cell line, 293T (HEK 293T), was propagated in Dulbecco's Modified Eagle Medium (Invitrogen, Carlsbad, Calif.) containing 10% fetal bovine serum (FBS, Sigma, St. Louis, Mo.). The human T-cell leukemia cell MT2 (AIDS Research and Reference Reagent Program, Cat. 237) was propagated in RPMI 1640 (Invitrogen, Carlsbad, Calif.) containing 10% fetal bovine serum (FBS, Hyclone, Logan, Utah) • Virus infection—Single-round infectious reporter virus was produced by co-transfecting HEK 293T cells with plasmide expressing the HIV-1 LAI envelope along with a plasmid containing an HIV-1 LAI proviral cDNA with the envelope gene replaced by a firefly luciferase reporter gene (Chen et al., Ref 41). Transfections were performed using lipofectAMINE PLUS reagent as described by the manufacturer (Invitrogen, Carlsbad, Calif.). Experimental Procedure • 1. MT2 cells were plated in black, 384 well plates at a cell density of 5×10^3 cells per well in 25 μl RPMI 1640 containing 10% FBS. • 2. Compound (diluted in dimethylsulfoxide and growth medium) was added to cells at 12.5 μl/well, so that the final assay concentration would be ≦50 nM. • 3. 12.5 μl of single-round infectious reporter virus in Dulbecco's Modified Eagle Medium was added to the plated cells and compound at an approximate multiplicity of infection (MOI) of 0.01, resulting in a final volume of 50 μl per well. • 4. Virus-infected cells were incubated at 37 degrees Celsius in a CO2 incubator and harvested 72 h after infection. • 5. Viral infection was monitored by measuring luciferase expression in the infected cells using a luciferase reporter gene assay kit (Steady-Glo, Promega, Madison, Wis.) as described by the manufacturer. Luciferase activity was then quantified by measuring luminescence using an EnVision Multilabel Plate Readers (PerkinElmer, Waltham, Mass.). • 6. The percent inhibition for each compound was calculated by quantifying the level of luciferase expression in cells infected in the presence of each compound as a percentage of that observed for cells infected in the absence of compound and subtracting such a determined value from 100. • 7. An EC50 provides a method for comparing the antiviral potency of the compounds of the invention. The effective concentration for fifty percent inhibition (EC50) was calculated with the Microsoft Excel Xlfit curve fitting software. For each compound, curves were generated from percent inhibition calculated at 10 different concentrations by using a four parameter logistic model (model 205). Table 1 is the key for the data in Table 2.
In general terms: Reporter assays use an easily measured gene product as a stand-in for the process of interest.

Where [1] appears, read: read-out: EC50 Group from Table 1.

Each structure is given as a SMILES string. pEC50: −log10 of the molar value. Read-outs that look alike come from different tables or passages of the source.

As a reminder, the pEC50 is the EC50 on a negative log10 scale, so that one unit is a factor of ten.

`COc1cnc(-n2cnc(C)n2)c2[nH]cc(C(=O)C(=O)N3CCC(=C4c5ccccc5C=Cc5ccccc54)CC3)c12` [Compound 1001] gave a negative logarithm of the EC50 (pEC50) of 9.55. The pEC50 under setting [1] is above 6.30.

Take `O=C(C(=O)N1CCC(=C2c3ccccc3CCc3ccccc32)CC1)c1c[nH]c2ccccc12` [Compound 1003]: the pEC50 is 6.16. In addition, the pEC50 under setting [1] was below 6.30.

Turning to `O=C(C(=O)N1CCC(=C2c3ccccc3CCc3ccccc32)CC1)c1c[nH]c2c(Br)ccc(F)c12` [Compound 1007], the pEC50 under setting [1] is below 6.30.

Regarding `COc1cnc(-n2cnc(C)n2)c2[nH]cc(C(=O)C(=O)N3CCC(=C4c5ccc(Cl)cc5CCc5cccnc54)CC3)c12` [Compound 1010], the pEC50 under setting [1] is above 6.30.

Consider `COc1cnc(-n2cnc(C)n2)c2[nH]cc(C(=O)C(=O)N3CCC(=C4c5ccccc5CCc5ccccc54)CC3)c12` [Compound 1009], for which the negative-log EC50 (pEC50) is 8.43. The pEC50 under setting [1] is above 6.30.

Consider `COc1cnc(Cl)c2[nH]cc(C(=O)C(=O)N3CCC(=C4c5ccccc5CCc5ccccc54)CC3)c12` [Compound 1004], for which the pEC50 under setting [1] was above 6.30.

For `COc1cnc(-n2cncn2)c2[nH]cc(C(=O)C(=O)N3CCC(=C4c5ccccc5CCc5ccccc54)CC3)c12` [Compound 1005], the pEC50 under setting [1] is above 6.30.

The molecule `COc1ccc(Br)c2[nH]cc(C(=O)C(=O)N3CCC(=C4c5ccccc5CCc5ccccc54)CC3)c12` [Compound 1006] had a pEC50 of 7.02. For the same molecule, the negative logarithm of the EC50 (pEC50) under setting [1] is above 6.30.

`O=C(C(=O)N1CCC(=C2c3ccc(Cl)cc3CCc3cccnc32)CC1)c1c[nH]c2c(Br)ccc(F)c12` [Compound 1008]: the negative logarithm of the EC50 (pEC50) under setting [1] is below 6.30.

Take `COc1cnc(Cl)c2[nH]cc(C(=O)C(=O)N3CCC(=C4c5ccc(Cl)cc5CCc5cccnc54)CC3)c12` [Compound 1002]: under setting [1], the pEC50 was above 6.30.

These data come from patent publication US9655888B2, “Tricyclic alkene derivatives as HIV attachment inhibitors” (priority 2012, dated 2017).
